Test results reported in PMC5711939, “The rumen microbiome: an underexplored resource for novel antimicrobial discovery” (NPJ Biofilms and Microbiomes, 2017).
Ends that are not written are not given here.

Columns and labels:
[1] = test system: Ent. faecalis JH2-2; assay: microbe, parasite or virus in culture
Method: (§1) Peptides dissolved in sterile distilled water and comparator antibiotics dissolved in the appropriate solvents[38] were added to sterile U-bottom polypropylene 96-well microplates at desired concentrations.

[2] = test system: List. monocytogenes NCTC 11994; assay: microbe, parasite or virus in culture; conditions: NCTC 11994
Method: as §1

[3] = test system: S. aureus; assay: microbe, parasite or virus in culture; conditions: for MIC: strain RN4220, Sensitive, cation adjusted MHB, 18–24 h
Method: as §1

[4] = test system: Sal. typhimurium SL1344; assay: microbe, parasite or virus in culture
Method: as §1

[5] = test system: E. coli K12; assay: SPOT peptide library screen (resazurin fluorescence); format: cell-based, Escherichia coli; set-up: unit not given here; conditions: 75% reduction of fluorescence vs untreated controls; active IC75≤0.25, semi-active 0.25<IC75≤0.50, inactive IC75>0.5
From the text: (§2) The peptides in the created peptide library were synthesized based on the SPOT technique and pure peptides (≥95% purity) were synthesized on resin using solid phase Fmoc peptide chemistry.[16] The 135 peptides in the peptide library were screened for antimicrobial activity using both luminescent (Pseudomonas aeruginosa strain H1001)[34] and non-luminescent (epidemic methicillin resistant S. aureus EMRSA-15, Sal. typhimurium and E. coli K12) bacterial strains. Activity against non-luminescent bacteria strains was assessed by fluorescence readings (excitation/emission spectra of 560/590 nm) after the addition of resazurin dye (100 µm final concentration). The results from the screen were analysed using the MATLAB extension Gait-CAD as previously described.[35] Concentration values with a 75% reduction of luminescence or fluorescence (IC75) in relation to untreated controls were computed.

[6] = test system: Sal. typhimurium; assay: as above; format: cell-based, Salmonella enterica serovar Typhimurium; set-up: unit not given here; conditions: 75% reduction of fluorescence vs untreated controls; active IC75≤0.25, semi-active 0.25<IC75≤0.50, inactive IC75>0.5
From the text: as §2

[7] = test system: MRSA strains; assay: Time kill kinetics; format: cell-based, Staphylococcus aureus; conditions: 3× MIC, MHB
Method: Assessment of the bactericidal activity of peptides and comparator antibiotics was performed as previously described[39] using exponential-phase cultures of pathogens grown in MHB ([…]). Peptides were added at concentrations 3 times their MIC values. Experiments were performed in quadruplicates, and CFU/ml was calculated at different time points after over overnight incubation.

[8] = test system: MRSA strains; conditions: sub-MIC levels, 25 days, daily passage
Method: To evaluate if populations of AMP-resistant bacteria could be selected, cultures were continuously exposed to Lynronne-1, Lynronne-2 and Lynronne-3 for a duration of 25 days, as previously described.[40] Briefly, broth microdilution susceptibility testing was performed using a standard doubling-dilution series of Lynronne-1, Lynronne-2 and Lynronne-3 concentrations on day 1.

[9] = Peptide-lipid interaction with pure lipids, lipid monolayer; format: binding; conditions: peptide 1 µg/ml; for Interaction with pure lipids: POPG, cardiolipin, LTA, POPE above POPC, initial surface pressure 30 ± 0.5 mN/m
Method: Membrane permeabilsation was evaluated using propidium iodide assay as previously explained,[43] with CTAB as positive control. Peptide–lipid interaction was measured using reconstituted lipid monolayer.[44] Total lipid extract from overnight liquid cultures of MRSA USA300 was obtained by Folch extraction, resuspended in chloroform and stored at −20 °C under nitrogen conditions. Pure bacterial and eukaryotic lipids, POPG, cardiolipin, LTA, POPE and POPC (Avanti Polar Lipid USA) were reconstituted in chloroform at 1 mg/ml and stored at −20 °C under nitrogen. Using a 50 µl Hamilton’s syringe, total MRSA lipid extract or pure lipids were spread at the surface of PBS creating a lipid monolayer at the air-water interface until an initial surface pressure of 30 ± 0.5 mN/m was reached. This corresponds to a lipid packing density theoretically equivalent to that of the outer leaflet of the cell membrane.[45] After 5–10 min of incubation allowing evaporation of the solvent and stabilization of the initial surface pressure, peptides were injected into the PBS (pH 7.4, volume 800 µl) sub-phase using a 10 µl Hamilton syringe. The variation of the surface pressure caused by peptide injection was then continuously monitored using a fully automated microtensiometer (µTROUGH SX, Kibron Inc., Helsinki, Finland) until reaching equilibrium (maximal surface pressure increase usually obtained after 15–25 min). Critical pressure of insertion of each peptide in the different lipids was also determined by changing the initial pressure of lipid monolayer (from 10 and 30 mN/m) and measuring the variation of pressure caused by the injection of peptide (at 1 µg/ml final concentration). All experiments were carried out in a controlled atmosphere at 20 °C ± 1 °C and data were analyzed using the Filmware 2.5 program (Kibron Inc., Helsinki, Finland). Variation of surface pressure was plotted as a function of initial surface pressure and critical pressure of insertion was calculated as the theoretical value of initial pressure of lipid monolayer not permissive to peptide insertion, i.e., a variation of pressure equal to 0 mN/m. The accuracy of the system under our experimental conditions was determined to be ± […] for surface pressure measurements.

[10] = test system: S. aureus MRSA ATCC 33591; assay: Neutropenic mouse MRSA thigh infection model; format: in vivo, Staphylococcus aureus; conditions: neutropenic male ICR mice; 10 mg/kg IV once or twice (2 h or 2 and 8 h post infection)
Method: In the thigh infection model, using neutropenic mice,[25] groups of five male ICR mice weighing 22 ± 2 g were inoculated intramuscularly (IM) with S. aureus MRSA, ATCC 33591 (1.57 × 10^5 CFU/mouse (0.1 ml/thigh)) in the right thigh. Lynronne-1, Lynronne-2 and Lynronne-3 at 10 mg/kg were intravenously (IV) administered once 2 h post infection or twice 2 and 8 h post-infection. The reference substance, vancomycin, was also intravenously injected 2 and 8 h post-infection at 10 and 30 mg/kg. Test animals were sacrificed 26 h after inoculation and the infected thighs were excised and the bacterial burden (CFU/gram) was determined.

[11] = test system: human and sheep erythrocytes
Method: The haemolytic activity of peptides was determined by measuring haemoglobin leakage from human and sheep erythrocytes (Divbioscience, NL) after 1 h incubation at OD450nm. Cetyltrimethylammonium bromide (CTAB), a non-specific detergent was also included as a positive control. Triton-X 100 (0.1% v/v) was also used as an indicator of 100% haemolysis while PBS treatment represented auto-haemolysis.

Substance | MIC [1] | MIC [2] | MIC [3] | MIC [4] | IC75 values indicating activity classes, E. coli [5] | IC75 values indicating activity classes, Sal. typhimurium [6] | Reduction in viable count ([7]; in 30 min) | Resistance acquisition during serial passage [8] | Interaction with pure lipids [9] | Affinity for lipids by critical pressure of insertion ([9]; initial pressure varied 10 to 30 mN/m) | Antimicrobial effect compared to the vehicle/control group (0.9% NaCl) [10] | Haemolytic activity against red blood cells [11] | MIC range for methicillin-resistant S. aureus (MRSA) strains [3] | Reduction in viable count ([7]; within the first 10 min)
HLRRINKLLTRIGLYRHAFG-NH2 [Lynronne-2] | 32 µg/mL | 32 µg/mL | 32 µg/mL | 32 µg/mL | 0.09 | 0.09 | > 3 log10 CFU/ml | failed to produce mutants that were resistant | preferentially interact with lipids specific to bacteria | highest affinity for LTA | not associated with any significant antimicrobial effects | little haemolytic activity |  | 
LPRRNRWSKIWKKVVTVFS-NH2 [Lynronne-1] | 32 µg/mL | 32 µg/mL | 32 µg/mL | 32 µg/mL | 0.06 | 0.24 |  | failed to produce mutants that were resistant | preferentially interact with lipids specific to bacteria |  | not associated with any significant antimicrobial effects | little haemolytic activity | 8 to 32 µg/mL | > 8 log10 CFU/ml
NRFTARFRRTPWRLCLQFRQ-NH2 [Lynronne-3] | 64 µg/mL | 32 µg/mL | 32 µg/mL | 64 µg/mL | 0.16 | 0.41 |  | failed to produce mutants that were resistant | preferentially interact with lipids specific to bacteria |  | not associated with any significant antimicrobial effects | little haemolytic activity | 32 to 128 µg/mL | > 8 log10 CFU/ml
